This is an account of results in US20150141336A1, “Pancreatic Peptide Compounds and Use” (Novo Nordisk A/S, priority 2012, published 2015).

Numbered stars: 1 amine (or outer) side, 2 acyl side, 3 side chain; on linkers, the order of the positions; unused ones are H or OH. Side chains are listed from the residue outwards. Peptide text beside a SMILES is read from it. * marks the point of attachment. C18 diacid = O=C(O)CCCCCCCCCCCCCCCCC(=O)*; γGlu = O=C(O)[C@H](CCC(=O)[*:2])N[*:1]; AEEA = NCCOCCOCC(=O)O

The data set can be described thus: Assay (II) PK i.v. minipig, in vivo half-life. Details: species or system Göttingen mini-pigs. As to conditions: male, Göttingen, minipig, iv, Half-life minipig, Assay (II). The method in brief: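 Plasma levels after a single 6 nmol/kg intravenous dose in five male Göttingen mini-pigs were measured by TFC/LC/MS/MS against spiked-plasma calibration, sampling to 240 h. Vehicle: 50 mM K2HPO4, 0.05% tween 80, pH 8.0. Individual profiles analysed non-compartmentally for half-life.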
Turning to `CC[C@H](C)[C@H](NC(=O)[C@H](Cc1ccc(O)cc1)NC(=O)[C@H](CCCCNC(=O)COCCOCCNC(=O)COCCOCCNC(=O)CC[C@H](NC(=O)CCCCCCCCCCCCCCCCC(=O)O)C(=O)O)NC(=O)[C@H](CCCNC(=N)N)NC(=O)[C@H](CC(C)C)NC(=O)[C@H](CC(=O)O)NC(=O)[C@H](C)NC(=O)[C@H](C)NC(=O)[C@H](Cc1ccc(O)cc1)NC(=O)[C@H](CCC(N)=O)NC(=O)[C@H](C)NC(=O)[C@H](CCSC)NC(=O)[C@H](CCC(N)=O)NC(=O)[C@H](CCC(=O)O)NC(=O)[C@@H]1CCCN1C(=O)[C@@H](NC(=O)[C@H](C)NC(=O)[C@H](CC(N)=O)NC(=O)[C@H](CC(=O)O)NC(=O)CNC(=O)[C@@H]1CCCN1C(=O)[C@H](Cc1ccc(O)cc1)NC(=O)[C@@H](NC(=O)[C@@H]1CCCN1C(=O)[C@H](CCC(=O)O)NC(=O)[C@H](CC(C)C)NC(=O)[C@@H]1CCCN1)C(C)C)[C@@H](C)O)C(=O)N[C@@H](CC(N)=O)C(=O)N[C@@H](CCSC)C(=O)N[C@@H](CC(C)C)C(=O)N[C@H](C(=O)N[C@@H](CCCNC(=N)N)C(=O)N1CCC[C@H]1C(=O)N[C@@H](CCCNC(=N)N)C(=O)N[C@@H](Cc1ccc(O)cc1)C(N)=O)[C@@H](C)O` [Compound H], the half-life was 62 h.

For the compound `CC[C@H](C)[C@H](NC(=O)[C@H](Cc1ccc(O)cc1)NC(=O)[C@H](CCCNC(=N)N)NC(=O)[C@H](CCCNC(=N)N)NC(=O)[C@H](CC(C)C)NC(=O)[C@H](CC(=O)O)NC(=O)[C@H](C)NC(=O)[C@H](C)NC(=O)[C@H](Cc1ccc(O)cc1)NC(=O)[C@H](CCC(N)=O)NC(=O)[C@H](C)NC(=O)[C@H](CCSC)NC(=O)[C@H](CCC(N)=O)NC(=O)[C@H](CCC(=O)O)NC(=O)[C@@H]1CCCN1C(=O)[C@@H](NC(=O)[C@H](C)NC(=O)[C@H](CC(N)=O)NC(=O)[C@H](CC(=O)O)NC(=O)CNC(=O)[C@H](CCCCNC(=O)COCCOCCNC(=O)COCCOCCNC(=O)CC[C@H](NC(=O)CCCCCCCCCCCCCCCCC(=O)O)C(=O)O)NC(=O)[C@H](Cc1ccc(O)cc1)NC(=O)[C@@H](NC(=O)[C@@H]1CCCN1C(=O)[C@H](CCC(=O)O)NC(=O)[C@@H](N)CC(C)C)C(C)C)[C@@H](C)O)C(=O)N[C@@H](CC(N)=O)C(=O)N[C@@H](CCSC)C(=O)N[C@@H](CC(C)C)C(=O)N[C@H](C(=O)N[C@@H](CCCNC(=N)N)C(=O)N1CCC[C@H]1C(=O)N[C@@H](CCCNC(=N)N)C(=O)N[C@@H](Cc1ccc(O)cc1)C(N)=O)[C@@H](C)O` [Compound BH], the half-life was 10 h.

In the case of `CC[C@H](C)[C@H](NC(=O)[C@H](Cc1ccc(O)cc1)NC(=O)[C@H](CCCNC(=N)N)NC(=O)[C@H](CCCNC(=N)N)NC(=O)[C@H](CC(C)C)NC(=O)[C@H](CC(=O)O)NC(=O)[C@H](C)NC(=O)[C@H](C)NC(=O)[C@H](Cc1ccc(O)cc1)NC(=O)[C@H](CCC(N)=O)NC(=O)[C@H](C)NC(=O)[C@H](CCSC)NC(=O)[C@H](CCC(N)=O)NC(=O)[C@H](CCC(=O)O)NC(=O)[C@@H]1CCCN1C(=O)[C@@H](NC(=O)[C@H](CCCCNC(=O)COCCOCCNC(=O)COCCOCCNC(=O)CC[C@H](NC(=O)CCCCCCCCCCCCCCCCC(=O)O)C(=O)O)NC(=O)[C@H](CC(N)=O)NC(=O)[C@H](CC(=O)O)NC(=O)CNC(=O)[C@@H]1CCCN1C(=O)[C@H](Cc1ccc(O)cc1)NC(=O)[C@@H](NC(=O)[C@@H]1CCCN1C(=O)[C@H](CCC(=O)O)NC(=O)[C@@H](N)CC(C)C)C(C)C)[C@@H](C)O)C(=O)N[C@@H](CC(N)=O)C(=O)N[C@@H](CCSC)C(=O)N[C@@H](CC(C)C)C(=O)N[C@H](C(=O)N[C@@H](CCCNC(=N)N)C(=O)N1CCC[C@H]1C(=O)N[C@@H](CCCNC(=N)N)C(=O)N[C@@H](Cc1ccc(O)cc1)C(N)=O)[C@@H](C)O` [Compound BD], the half-life is 17 h.

Regarding `CC[C@H](C)[C@H](NC(=O)[C@H](Cc1ccc(O)cc1)NC(=O)[C@H](CCCNC(=N)N)NC(=O)[C@H](CCCNC(=N)N)NC(=O)[C@H](CC(C)C)NC(=O)[C@H](CC(=O)O)NC(=O)[C@H](C)NC(=O)[C@H](C)NC(=O)[C@H](Cc1ccc(O)cc1)NC(=O)[C@H](CCC(N)=O)NC(=O)[C@H](C)NC(=O)[C@H](CCSC)NC(=O)[C@H](CCC(N)=O)NC(=O)[C@H](CCC(=O)O)NC(=O)[C@@H]1CCCN1C(=O)[C@@H](NC(=O)[C@H](C)NC(=O)[C@H](CC(N)=O)NC(=O)[C@H](CC(=O)O)NC(=O)CNC(=O)[C@@H]1CCCN1C(=O)[C@H](Cc1ccc(O)cc1)NC(=O)[C@@H](NC(=O)[C@@H]1CCCN1C(=O)[C@H](CCCCNC(=O)COCCOCCNC(=O)COCCOCCNC(=O)CC[C@H](NC(=O)CCCCCCCCCCCCCCCCC(=O)O)C(=O)O)NC(=O)[C@H](CC(C)C)NC(=O)[C@@H]1CCCN1)C(C)C)[C@@H](C)O)C(=O)N[C@@H](CC(N)=O)C(=O)N[C@@H](CCSC)C(=O)N[C@@H](CC(C)C)C(=O)N[C@H](C(=O)N[C@@H](CCCNC(=N)N)C(=O)N1CCC[C@H]1C(=O)N[C@@H](CCCNC(=N)N)C(=O)N[C@@H](Cc1ccc(O)cc1)C(N)=O)[C@@H](C)O` [Compound AD], the half-life was 52 h.

In the case of `CC[C@H](C)[C@H](NC(=O)[C@H](Cc1ccc(O)cc1)NC(=O)[C@H](CCCNC(=N)N)NC(=O)[C@H](CCCNC(=N)N)NC(=O)[C@H](CC(C)C)NC(=O)[C@H](CC(=O)O)NC(=O)[C@H](C)NC(=O)[C@H](C)NC(=O)[C@H](Cc1ccc(O)cc1)NC(=O)[C@H](CCC(N)=O)NC(=O)[C@H](C)NC(=O)[C@H](CCSC)NC(=O)[C@H](CCC(N)=O)NC(=O)[C@H](CCC(=O)O)NC(=O)[C@@H]1CCCN1C(=O)[C@@H](NC(=O)[C@H](C)NC(=O)[C@H](CC(N)=O)NC(=O)[C@H](CC(=O)O)NC(=O)CNC(=O)[C@@H]1CCCN1C(=O)[C@H](CCCCNC(=O)COCCOCCNC(=O)COCCOCCNC(=O)CC[C@H](NC(=O)CCCCCCCCCCCCCCCCC(=O)O)C(=O)O)NC(=O)[C@@H](NC(=O)[C@@H]1CCCN1C(=O)[C@H](CCC(=O)O)NC(=O)[C@H](CC(C)C)NC(=O)[C@@H]1CCCN1)C(C)C)[C@@H](C)O)C(=O)N[C@@H](CC(N)=O)C(=O)N[C@@H](CCSC)C(=O)N[C@@H](CC(C)C)C(=O)N[C@H](C(=O)N[C@@H](CCCNC(=N)N)C(=O)N1CCC[C@H]1C(=O)N[C@@H](CCCNC(=N)N)C(=O)N[C@@H](Cc1ccc(O)cc1)C(N)=O)[C@@H](C)O` [Compound AA], the half-life was 17 h.

Regarding `CC[C@H](C)[C@H](NC(=O)[C@H](Cc1ccc(O)cc1)NC(=O)[C@H](CCCNC(=N)N)NC(=O)[C@H](CCCNC(=N)N)NC(=O)[C@H](CC(C)C)NC(=O)[C@H](CC(=O)O)NC(=O)[C@H](CCCCNC(=O)COCCOCCNC(=O)COCCOCCNC(=O)CC[C@H](NC(=O)CCCCCCCCCCCCCCCCC(=O)O)C(=O)O)NC(=O)[C@H](C)NC(=O)[C@H](Cc1ccc(O)cc1)NC(=O)[C@H](CCC(N)=O)NC(=O)[C@H](C)NC(=O)[C@H](CCSC)NC(=O)[C@H](CCC(N)=O)NC(=O)[C@H](CCC(=O)O)NC(=O)[C@@H]1CCCN1C(=O)[C@@H](NC(=O)[C@H](C)NC(=O)[C@H](CC(N)=O)NC(=O)[C@H](CC(=O)O)NC(=O)CNC(=O)[C@@H]1CCCN1C(=O)[C@H](Cc1ccc(O)cc1)NC(=O)[C@@H](NC(=O)[C@@H]1CCCN1C(=O)[C@H](CCC(=O)O)NC(=O)[C@@H](N)CC(C)C)C(C)C)[C@@H](C)O)C(=O)N[C@@H](CC(N)=O)C(=O)N[C@@H](CCSC)C(=O)N[C@@H](CC(C)C)C(=O)N[C@H](C(=O)N[C@@H](CCCNC(=N)N)C(=O)N1CCC[C@H]1C(=O)N[C@@H](CCCNC(=N)N)C(=O)N[C@@H](Cc1ccc(O)cc1)C(N)=O)[C@@H](C)O` [Compound AT] (H-LEPVYPGDNATPEQMAQYAK([AEEA-AEEA-γGlu-C18 diacid])DLRRYINMLTRPRY-NH2; N-terminus and C-terminus assumed), the half-life was 34 h.

As to `CC[C@H](C)[C@H](NC(=O)[C@H](Cc1ccc(O)cc1)NC(=O)[C@H](CCCNC(=N)N)NC(=O)[C@H](CCCNC(=N)N)NC(=O)[C@H](CC(C)C)NC(=O)[C@H](CC(=O)O)NC(=O)[C@H](C)NC(=O)[C@H](C)NC(=O)[C@H](Cc1ccc(O)cc1)NC(=O)[C@H](CCC(N)=O)NC(=O)[C@H](C)NC(=O)[C@H](CCSC)NC(=O)[C@H](CCC(N)=O)NC(=O)[C@H](CCC(=O)O)NC(=O)[C@@H]1CCCN1C(=O)[C@@H](NC(=O)[C@H](C)NC(=O)[C@H](CC(N)=O)NC(=O)[C@H](CC(=O)O)NC(=O)CNC(=O)[C@@H]1CCCN1C(=O)[C@H](Cc1ccc(O)cc1)NC(=O)[C@@H](NC(=O)[C@@H]1CCCN1C(=O)[C@H](CCC(=O)O)NC(=O)[C@@H](N)CC(C)C)C(C)C)[C@@H](C)O)C(=O)N[C@@H](CC(N)=O)C(=O)N[C@@H](CCSC)C(=O)N[C@@H](CC(C)C)C(=O)N[C@H](C(=O)N[C@@H](CCCCNC(=O)COCCOCCNC(=O)COCCOCCNC(=O)CC[C@H](NC(=O)CCCCCCCCCCCCCCCCC(=O)O)C(=O)O)C(=O)N1CCC[C@H]1C(=O)N[C@@H](CCCNC(=N)N)C(=O)N[C@@H](Cc1ccc(O)cc1)C(N)=O)[C@@H](C)O` [AI] (H-LEPVYPGDNATPEQMAQYAADLRRYINMLTK([AEEA-AEEA-γGlu-C18 diacid])PRY-NH2; N-terminus and C-terminus assumed), the half-life was 45 h.

Turning to `CC[C@H](C)[C@H](NC(=O)[C@H](CCCCNC(=O)COCCOCCNC(=O)COCCOCCNC(=O)CC[C@H](NC(=O)CCCCCCCCCCCCCCCCC(=O)O)C(=O)O)NC(=O)[C@H](CCCNC(=N)N)NC(=O)[C@H](CCCNC(=N)N)NC(=O)[C@H](CC(C)C)NC(=O)[C@H](CC(=O)O)NC(=O)[C@H](C)NC(=O)[C@H](C)NC(=O)[C@H](Cc1ccc(O)cc1)NC(=O)[C@H](CCC(N)=O)NC(=O)[C@H](C)NC(=O)[C@H](CCSC)NC(=O)[C@H](CCC(N)=O)NC(=O)[C@H](CCC(=O)O)NC(=O)[C@@H]1CCCN1C(=O)[C@@H](NC(=O)[C@H](C)NC(=O)[C@H](CC(N)=O)NC(=O)[C@H](CC(=O)O)NC(=O)CNC(=O)[C@@H]1CCCN1C(=O)[C@H](Cc1ccc(O)cc1)NC(=O)[C@@H](NC(=O)[C@@H]1CCCN1C(=O)[C@H](CCC(=O)O)NC(=O)[C@H](CC(C)C)NC(=O)[C@@H]1CCCN1)C(C)C)[C@@H](C)O)C(=O)N[C@@H](CC(N)=O)C(=O)N[C@@H](CCSC)C(=O)N[C@@H](CC(C)C)C(=O)N[C@H](C(=O)N[C@@H](CCCNC(=N)N)C(=O)N1CCC[C@H]1C(=O)N[C@@H](CCCNC(=N)N)C(=O)N[C@@H](Cc1ccc(O)cc1)C(N)=O)[C@@H](C)O` [Compound G] (H-PLEPVYPGDNATPEQMAQYAADLRRK([AEEA-AEEA-γGlu-C18 diacid])INMLTRPRY-NH2; N-terminus and C-terminus assumed), the half-life is 96 h.
